Patent US9573882B2, “Use of 4-[ethyl(dimethyl)ammonio]butanoate in the treatment of cardiovascular disease” (JSC GRINDEKS, priority 2009, dated 2017)

Assays:
[1] = system: isolated rat heart infarction model; assay: Isolated rat heart infarction study after daily p.o. treatment; assay type: in vivo, Wistar rats; conditions: for Infarct size, % of control: isolated rat heart, 60 min occlusion, 150 min reperfusion, mean ± s.e.m. of 9-10 animals; for decrease of infarct size: versus control
Method: Fifty male, 10 weeks old Wistar rats weighing 200-250 g were housed under standard conditions (21-23° C., 12 h light-dark cycle) with unlimited access to food (R3 diet, Lactamin AB, Sweden) and water.
Rats were adapted to local conditions for two weeks before the start of treatment. Meldonium dihydrate at a dose of 5 mg/kg or 100 mg/kg, gamma-butyrobetaine at a dose of 5 mg/kg and EG at doses of 20 mg/kg were administered p.o. daily for 8 weeks. Control rats received water.
Isolated Rat Heart Infarction Study The isolated rat heart experiment was performed essentially as described earlier (Liepinsh et al., J. Cardiovasc. Pharmacol. 2006; 48(6):314-9). Twenty-four hours after the last drug administration hearts were excised and retrogradely perfused via the aorta at a constant pressure with oxygenated Krebs-Henseleit buffer at 37° C. The heart rate, left ventricle end-diastolic pressure and left ventricle developed pressure were continuously recorded. Coronary flow was measured using an ultrasound flow detector (HSE) and the PowerLab 8/30 system from ADInstruments. The hearts were perfused for 20 min to stabilize the hemodynamic functions and then occlusion was performed for 60 min by constricting threads through a plastic tube. Successful occlusion was confirmed by a coronary flow decrease of about 40 percent. Reperfusion was achieved by releasing the threads. At the end of the 150-min reperfusion period, the risk zone was delineated with 0.1% methylene blue. The hearts were then sectioned transversely from the apex to the base in five slices 2 mm in thickness and incubated in 1% triphenyltetrazolium chloride in phosphate buffer (pH 7.4, 37° C.) for 10 min to stain viable tissue red and necrotic tissue white. Computerized planemetric analysis of Sony A900 photographs was performed using Image-Pro Plus 6.3 software to determine the area at risk and area of necrosis expressed as a % of the left ventricle. The obtained values were then used to calculate the infarct size (IS) as a % of risk area according to the formula: Infarct Size=Area of Necrosis/Area at Risk×100%.
The anti-infarction effect of examined substances was investigated in an isolated rat heart infarction model. During occlusion of left coronary artery, the coronary flow in all experimental groups was decreased for 40% (from 11 ml/min 30 to 7 ml/min). Moreover, the drop of developed left ventricular pressure for 50% was observed. […] In reperfusion stage, coronary flow, developed left ventricular pressure, ±dp/dt values were recovered till about 80% of control level. There were no significant differences between control and treatment groups.
Effects of Meldonium dihydrate (5 mg/kg un 100 mg/kg), gamma-butyrobetaine (5 mg/kg) and 4-[ethyl(dimethyl)ammonio]butanoate (EG) (5 mg/kg) after […] of treatment on infarct size in the isolated rat heart infarction experiment are presented in Table 1.

[2] = s.c.; cited from earlier work

SMILES | Infarct size, % of control ([1]; 5 mg/kg p.o. daily) | Infarct size, % of control ([1]; 100 mg/kg p.o. daily) | decrease of infarct size ([1]; 100 mg/kg) | decrease of infarct size ([1]; dose of 5 mg/kg) | therapeutical effect on infarct size ([1]; dose of 5 mg/kg) | LD50 [2]
C[N+](C)(C)NCCC(=O)[O-] [Meldonium dihydrate, 3-(2,2,2-Trimethylhydrazinium)propionate dihydrate] | 95 ± 9 % of control | 76 ± 10 % of control | 24% | 5% |  | 
C[N+](C)(C)CCCC(=O)[O-] [Gamma-butyrobetaine] | 90 ± 5 % of control |  |  |  | no therapeutical effect | > 7000 mg/kg
CC[N+](C)(C)CCCC(=O)[O-] [EG, 4-[ethyl(dimethyl)ammonio]butanoate] | 59 ± 6 % of control |  |  | 41% |  | 
